Assay [1] deals with T1, Type-2 angiotensin II receptor (Homo sapiens, UniProt P50052).
T1 sequence (P50052 whole entry): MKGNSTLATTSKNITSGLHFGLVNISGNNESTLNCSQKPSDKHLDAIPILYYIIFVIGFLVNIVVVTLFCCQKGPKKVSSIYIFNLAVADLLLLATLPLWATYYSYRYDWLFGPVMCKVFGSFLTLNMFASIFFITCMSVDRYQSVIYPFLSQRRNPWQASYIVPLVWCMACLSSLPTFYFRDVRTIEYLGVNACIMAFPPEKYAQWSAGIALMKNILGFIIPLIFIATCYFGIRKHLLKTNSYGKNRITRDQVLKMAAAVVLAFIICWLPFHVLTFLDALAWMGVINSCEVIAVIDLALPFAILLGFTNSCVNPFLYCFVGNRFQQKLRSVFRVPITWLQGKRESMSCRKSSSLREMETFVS
As to the kind of experiment: Compound was evaluated for binding affinity against Angiotensin II receptor, type 2 using radioligand binding assay.

Assay [2] has as its target T2, 5-hydroxytryptamine receptor 1A (Mus musculus, UniProt Q64264).
T2 sequence (Q64264 whole entry): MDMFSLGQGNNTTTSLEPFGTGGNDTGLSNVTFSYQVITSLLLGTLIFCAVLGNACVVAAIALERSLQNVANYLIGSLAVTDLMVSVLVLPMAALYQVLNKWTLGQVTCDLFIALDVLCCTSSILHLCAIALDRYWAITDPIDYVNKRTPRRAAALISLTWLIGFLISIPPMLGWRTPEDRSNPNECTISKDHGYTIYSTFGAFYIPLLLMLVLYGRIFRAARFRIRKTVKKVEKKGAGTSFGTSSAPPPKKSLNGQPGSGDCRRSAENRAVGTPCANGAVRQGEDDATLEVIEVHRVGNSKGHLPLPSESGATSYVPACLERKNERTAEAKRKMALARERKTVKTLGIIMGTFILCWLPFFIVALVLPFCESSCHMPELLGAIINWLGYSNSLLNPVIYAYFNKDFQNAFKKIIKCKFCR
As to the kind of experiment: Compound was evaluated for binding affinity against 5-hydroxytryptamine 1A receptor using radioligand binding assay.

In assay [3] the target is T3, Muscarinic acetylcholine receptor M2 (Homo sapiens, UniProt P08172).
T3 sequence (P08172 whole entry): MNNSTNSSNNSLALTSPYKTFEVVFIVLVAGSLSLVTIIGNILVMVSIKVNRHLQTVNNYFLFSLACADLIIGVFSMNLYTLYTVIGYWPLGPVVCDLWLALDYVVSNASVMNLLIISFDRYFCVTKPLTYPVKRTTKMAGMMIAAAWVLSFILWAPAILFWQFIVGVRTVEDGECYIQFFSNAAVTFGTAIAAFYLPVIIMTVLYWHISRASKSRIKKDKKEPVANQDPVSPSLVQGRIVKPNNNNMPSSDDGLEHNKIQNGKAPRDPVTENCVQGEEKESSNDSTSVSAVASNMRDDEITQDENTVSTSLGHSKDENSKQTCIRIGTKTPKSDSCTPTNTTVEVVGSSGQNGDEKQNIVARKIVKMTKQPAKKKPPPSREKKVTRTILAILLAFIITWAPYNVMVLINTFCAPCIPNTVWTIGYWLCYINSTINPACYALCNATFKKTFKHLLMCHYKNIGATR
As to the kind of experiment: Compound was evaluated for binding affinity against Muscarinic M2 receptor using radioligand binding assay.

In assay [4] the target is Serotonin 3 (5-HT3) receptor. As to the kind of experiment: Compound was evaluated for binding affinity against 5-hydroxytryptamine 3 receptor using radioligand binding assay. Format: protein-complex assay.
Assay [5] deals with T4, Alpha-1A adrenergic receptor (Homo sapiens, UniProt P35348).
T4 sequence (P35348 whole entry): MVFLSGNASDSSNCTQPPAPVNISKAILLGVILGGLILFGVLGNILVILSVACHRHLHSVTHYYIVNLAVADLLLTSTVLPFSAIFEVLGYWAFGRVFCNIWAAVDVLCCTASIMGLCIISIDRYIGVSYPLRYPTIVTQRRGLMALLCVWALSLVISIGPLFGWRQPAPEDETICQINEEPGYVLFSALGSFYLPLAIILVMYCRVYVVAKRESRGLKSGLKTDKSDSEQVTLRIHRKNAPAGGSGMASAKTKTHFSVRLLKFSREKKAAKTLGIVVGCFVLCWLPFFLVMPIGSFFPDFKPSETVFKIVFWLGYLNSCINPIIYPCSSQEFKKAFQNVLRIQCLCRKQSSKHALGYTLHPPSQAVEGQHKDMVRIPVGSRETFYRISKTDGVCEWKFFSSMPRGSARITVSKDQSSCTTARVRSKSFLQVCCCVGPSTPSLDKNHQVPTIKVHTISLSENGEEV
As to the kind of experiment: Compound was evaluated for binding affinity against Alpha-1C adrenergic receptor using radioligand binding assay.

For assay [6], the target named is T5, Alpha-1B adrenergic receptor (Homo sapiens, UniProt P35368).
T5 sequence (P35368 whole entry): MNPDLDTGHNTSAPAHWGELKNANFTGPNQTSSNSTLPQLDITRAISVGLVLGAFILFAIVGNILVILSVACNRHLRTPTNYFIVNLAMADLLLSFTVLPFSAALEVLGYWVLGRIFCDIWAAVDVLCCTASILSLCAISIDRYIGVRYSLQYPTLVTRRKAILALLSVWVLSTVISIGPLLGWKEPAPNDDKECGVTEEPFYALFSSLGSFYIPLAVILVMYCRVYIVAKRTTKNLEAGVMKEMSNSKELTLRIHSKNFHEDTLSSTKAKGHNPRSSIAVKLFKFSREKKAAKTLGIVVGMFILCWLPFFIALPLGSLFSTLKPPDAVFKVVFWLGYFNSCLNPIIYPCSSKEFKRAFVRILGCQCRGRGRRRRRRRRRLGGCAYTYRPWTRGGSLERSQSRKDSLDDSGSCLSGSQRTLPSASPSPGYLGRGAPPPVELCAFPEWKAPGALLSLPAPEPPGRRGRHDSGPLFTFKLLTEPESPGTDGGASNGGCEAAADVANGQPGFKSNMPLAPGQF
As to the kind of experiment: Compound was evaluated for binding affinity against Alpha-1B adrenergic receptor using radioligand binding assay.

Molecules are shown by their SMILES.

One may read the Ki as the equilibrium dissociation constant of an inhibitor or competing ligand from its target. High values mean lower affinity, low ones higher affinity. `COc1ccc(CCCN2CCC(CCC(=O)c3cc(Cl)c(N)c4c3OCCO4)CC2)cc1OC`: the inhibition constant (Ki) is above 10 µM in assay [1]; 1 µM in assay [2]; 1.26 µM in assay [3]; 0.316 µM in assay [5]; 0.501 µM in assay [6]. In assay [4], the “Log Ki” value is recorded as -6.3.

The record behind these values is ChEMBL document CHEMBL1153669, “Rs-100235: A high affinity 5-HT4 receptor antagonist” (Bioorg Med Chem Lett, 1995).
